Test results as given in PubChem BioAssay (NCI).
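96-well plates; 48 h exposure; 5 concentrations. Endpoints by linear interpolation between flanking doses. Not reached: highest tested concentration assigned. GI50 marks 50% less growth. TGI is the concentration that stops growth completely.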

Tests used:
Experiment in all cases: inhibition of tumour cell growth, NCI panel, 48 h
OVCAR-5 ovarian = tested on: OVCAR-5 ovarian
HL-60(TB) leukemia = tested on: HL-60(TB) leukemia
PC-3 prostate = tested on: PC-3 prostate
786-0 renal = tested on: 786-0 renal
K-562 leukemia = tested on: K-562 leukemia
M14 melanoma = tested on: M14 melanoma
SK-MEL-2 melanoma = tested on: SK-MEL-2 melanoma
UO-31 renal = tested on: UO-31 renal
SF-539 CNS = tested on: SF-539 CNS
OVCAR-8 ovarian = tested on: OVCAR-8 ovarian

CC(C)=CC[C@@H]1CC2(CC=C(C)C)C(=O)C(OC3(C(=O)c4ccccc4)C(=O)C4(CC=C(C)C)C[C@@H](CC=C(C)C)C(C)(C)C(CC=C(C)C)(C4=O)C3=O)(C(=O)c3ccccc3)C(=O)C(CC=C(C)C)(C2=O)C1(C)C (stereo partly drawn)
GI50 (OVCAR-5 ovarian): 1510 nM
TGI (OVCAR-5 ovarian): 8.06 µM
GI50 (HL-60(TB) leukemia): 1060 nM
TGI (HL-60(TB) leukemia): 2.44 µM
GI50 (PC-3 prostate): 1280 nM
TGI (PC-3 prostate): 4.36 µM
GI50 (786-0 renal): 963 nM
TGI (786-0 renal): 2.61 µM
GI50 (K-562 leukemia): 1720 nM
TGI (K-562 leukemia): 50 µM
GI50 (M14 melanoma): 1130 nM
TGI (M14 melanoma): 3.13 µM
GI50 (SK-MEL-2 melanoma): 1010 nM
TGI (SK-MEL-2 melanoma): 3.04 µM
GI50 (UO-31 renal): 1280 nM
TGI (UO-31 renal): 4.82 µM
GI50 (SF-539 CNS): 1140 nM
TGI (SF-539 CNS): 2.65 µM
GI50 (OVCAR-8 ovarian): 1700 nM
TGI (OVCAR-8 ovarian): 6.05 µM

Sc1cccc2cccnc12
GI50 (OVCAR-5 ovarian): 4100 nM
TGI (OVCAR-5 ovarian): 17.7 µM
GI50 (HL-60(TB) leukemia): 1020 nM
TGI (HL-60(TB) leukemia): 7.21 µM
GI50 (PC-3 prostate): 577 nM
TGI (PC-3 prostate): 13.1 µM
GI50 (786-0 renal): 1220 nM
TGI (786-0 renal): 14.3 µM
GI50 (K-562 leukemia): 385 nM
TGI (K-562 leukemia): > 52 µM
GI50 (M14 melanoma): 457 nM
TGI (M14 melanoma): 6.09 µM
GI50 (SK-MEL-2 melanoma): 2580 nM
TGI (SK-MEL-2 melanoma): 15.3 µM
GI50 (UO-31 renal): 616 nM
TGI (UO-31 renal): 11.9 µM
GI50 (SF-539 CNS): 776 nM
TGI (SF-539 CNS): 12.9 µM
GI50 (OVCAR-8 ovarian): 537 nM
TGI (OVCAR-8 ovarian): 15.3 µM

N#CC1=C(N)Oc2c(sc3c(Br)cccc23)C1c1ccc([N+](=O)[O-])cc1 (stereo not drawn)
GI50 (OVCAR-5 ovarian): 1400 nM
TGI (OVCAR-5 ovarian): 16.4 µM
GI50 (HL-60(TB) leukemia): 81.6 nM
TGI (HL-60(TB) leukemia): 1.15 µM
GI50 (PC-3 prostate): 110 nM
TGI (PC-3 prostate): 13.6 µM
GI50 (786-0 renal): 158 nM
TGI (786-0 renal): 11.9 µM
GI50 (K-562 leukemia): 45.8 nM
TGI (K-562 leukemia): 13.5 µM
GI50 (M14 melanoma): 96.4 nM
TGI (M14 melanoma): 11.8 µM
GI50 (SK-MEL-2 melanoma): 294 nM
TGI (SK-MEL-2 melanoma): 17.5 µM
GI50 (UO-31 renal): 126 nM
TGI (UO-31 renal): 14.5 µM
GI50 (SF-539 CNS): 61.9 nM
TGI (SF-539 CNS): 0.475 µM
GI50 (OVCAR-8 ovarian): 227 nM
TGI (OVCAR-8 ovarian): 12.2 µM

COc1cc(/C=C2\CC3C4CC=C5CC(OC(C)=O)CC[C@]5(C)C4CC[C@]3(C)C2=O)ccc1OCCN1CCCC1 (stereo partly drawn)
GI50 (OVCAR-5 ovarian): 13400 nM
TGI (OVCAR-5 ovarian): 26.4 µM
GI50 (HL-60(TB) leukemia): 2780 nM
TGI (HL-60(TB) leukemia): 6.89 µM
GI50 (PC-3 prostate): 8470 nM
TGI (PC-3 prostate): 23.2 µM
GI50 (786-0 renal): 4510 nM
TGI (786-0 renal): 14 µM
GI50 (K-562 leukemia): 1080 nM
TGI (K-562 leukemia): 7.41 µM
GI50 (M14 melanoma): 1420 nM
TGI (M14 melanoma): 2.9 µM
GI50 (SK-MEL-2 melanoma): 6990 nM
TGI (SK-MEL-2 melanoma): 23.7 µM
GI50 (UO-31 renal): 8670 nM
TGI (UO-31 renal): 23.5 µM
GI50 (SF-539 CNS): 3630 nM
TGI (SF-539 CNS): 9.82 µM
GI50 (OVCAR-8 ovarian): 13800 nM
TGI (OVCAR-8 ovarian): 47 µM

Nc1ccc(/C=C/c2ccc3ncccc3c2)cc1
GI50 (OVCAR-5 ovarian): > 100000 nM
TGI (OVCAR-5 ovarian): > 100 µM
GI50 (HL-60(TB) leukemia): 1520 nM
TGI (HL-60(TB) leukemia): > 100 µM
GI50 (PC-3 prostate): 7290 nM
TGI (PC-3 prostate): > 100 µM
GI50 (786-0 renal): > 100000 nM
TGI (786-0 renal): > 100 µM
GI50 (K-562 leukemia): > 100000 nM
TGI (K-562 leukemia): > 100 µM
GI50 (M14 melanoma): > 100000 nM
TGI (M14 melanoma): > 100 µM
GI50 (SK-MEL-2 melanoma): > 100000 nM
TGI (SK-MEL-2 melanoma): > 100 µM
GI50 (UO-31 renal): 2320 nM
TGI (UO-31 renal): > 100 µM
GI50 (SF-539 CNS): > 100000 nM
TGI (SF-539 CNS): > 100 µM
GI50 (OVCAR-8 ovarian): > 100000 nM
TGI (OVCAR-8 ovarian): > 100 µM

CCOc1ccc(N(C)c2ccc(/C=C/C3=[N+](C)c4ccccc4C3(C)C)cc2)cc1
GI50 (OVCAR-5 ovarian): 1280 nM
TGI (OVCAR-5 ovarian): 2.92 µM
GI50 (HL-60(TB) leukemia): 59 nM
TGI (HL-60(TB) leukemia): 0.257 µM
GI50 (PC-3 prostate): 75.9 nM
TGI (PC-3 prostate): 0.793 µM
GI50 (786-0 renal): 562 nM
TGI (786-0 renal): 1.92 µM
GI50 (K-562 leukemia): 359 nM
TGI (K-562 leukemia): 10.3 µM
GI50 (M14 melanoma): 366 nM
TGI (M14 melanoma): 1.73 µM
GI50 (SK-MEL-2 melanoma): 361 nM
TGI (SK-MEL-2 melanoma): 1.25 µM
GI50 (UO-31 renal): 449 nM
TGI (UO-31 renal): 1.79 µM
GI50 (SF-539 CNS): 771 nM
TGI (SF-539 CNS): 2.2 µM
GI50 (OVCAR-8 ovarian): 117 nM
TGI (OVCAR-8 ovarian): 1.17 µM

COC(=O)N[C@H]1CCc2cc(OC)c(OC)c(OC)c2-c2ccc(SC)c(=O)cc21
GI50 (OVCAR-5 ovarian): < 10 nM
TGI (OVCAR-5 ovarian): > 100 µM
GI50 (HL-60(TB) leukemia): < 10 nM
GI50 (PC-3 prostate): < 10 nM
TGI (PC-3 prostate): > 100 µM
GI50 (786-0 renal): < 10 nM
TGI (786-0 renal): > 100 µM
GI50 (K-562 leukemia): < 10 nM
TGI (K-562 leukemia): > 100 µM
GI50 (M14 melanoma): < 10 nM
TGI (M14 melanoma): > 26.9 µM
GI50 (SK-MEL-2 melanoma): 1760 nM
TGI (SK-MEL-2 melanoma): > 100 µM
GI50 (UO-31 renal): < 44.7 nM
TGI (UO-31 renal): > 100 µM
GI50 (SF-539 CNS): < 10 nM
GI50 (OVCAR-8 ovarian): < 10 nM
TGI (OVCAR-8 ovarian): > 100 µM

CC(=O)OCC1C(=O)OCC1C(=O)N1Cc2cc3ccccc3nc2C1 (stereo not drawn)
TGI (OVCAR-5 ovarian): 15.8 µM
TGI (HL-60(TB) leukemia): 11.9 µM
TGI (PC-3 prostate): 20.1 µM
TGI (786-0 renal): 3.84 µM
TGI (K-562 leukemia): 9.76 µM
TGI (M14 melanoma): 3.67 µM
TGI (SK-MEL-2 melanoma): 22.9 µM
TGI (UO-31 renal): 8.15 µM
TGI (SF-539 CNS): 17.8 µM
TGI (OVCAR-8 ovarian): 11.5 µM

CCN(Cc1ccc(OC)cc1)c1ccc(CO)c(Cl)c1
GI50 (OVCAR-5 ovarian): 162 nM
TGI (OVCAR-5 ovarian): 0.636 µM
GI50 (HL-60(TB) leukemia): 13800 nM
TGI (HL-60(TB) leukemia): 59.9 µM
GI50 (PC-3 prostate): 21700 nM
TGI (PC-3 prostate): > 81.8 µM
GI50 (786-0 renal): 10600 nM
TGI (786-0 renal): 45.4 µM
GI50 (K-562 leukemia): 2330 nM
TGI (K-562 leukemia): > 100 µM
GI50 (M14 melanoma): 16100 nM
TGI (M14 melanoma): 58.3 µM
GI50 (SK-MEL-2 melanoma): 3790 nM
TGI (SK-MEL-2 melanoma): 20.2 µM
GI50 (UO-31 renal): 6180 nM
TGI (UO-31 renal): 39.6 µM
GI50 (SF-539 CNS): 19900 nM
TGI (SF-539 CNS): 46.3 µM
GI50 (OVCAR-8 ovarian): 14000 nM
TGI (OVCAR-8 ovarian): 52.4 µM
